Where two headings read alike, the source gives them in different places.
Legend:
[1] = test system: cucumber gray mold fungus (Botrytis cinerea); test: Preventive test against gray mold on cucumber cotyledon leaves, spray treatment, preventive value and Colby expected value (Test Examples 1-4); type: in vivo; settings: single compound; for pest or weed control at 3 ppm / pest or weed control at 1 ppm: Botrytis cinerea, 72 h; for pest or weed control at 3 ppm: read-out: Preventive value
Method in brief: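 Cucumber (Sagami-hanjiro) cotyledons sprayed with water-diluted formulations of ingredient A, B or mixtures, air-dried, detached, and drop-inoculated with Botrytis cinerea conidia mixed 1:1 with PDA. After 3 days at 20 °C, lesion area gave preventive value versus untreated; Colby expected value E=X+Y−XY/100 computed for mixtures.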

[2] = test system: wheat glume blotch (Leptosphaeria nodorum); test: Efficacy test on wheat glume blotch, spray treatment and prevention test (Test Example 8); type: in vivo; settings: spray, lesion area ratio; for pest or weed control at 3 ppm / pest or weed control at 10 ppm: Parastagonospora nodorum, read-out: Preventive value
Method in brief: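 Wheat seedlings (Haruyutaka, 1-leaf stage) sprayed with diluted two-component formulation; one day later spray-inoculated with L. nodorum spores (1×100,000 cfu/ml), 48 h at 20° C, >95% RH, then 7 days greenhouse. Lesion area ratio gives preventive value versus untreated; synergy assessed by Colby method.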

Row | SMILES | Preventive value ([1]; Test Example 1, 3 ppm spray) | Preventive value ([1]; Test Example 3, 3 ppm spray) | Preventive value ([1]; Test Example 4, 3 ppm spray) | Preventive value ([2]; single compound 3 ppm) | Preventive value ([2]; single compound 10 ppm) | pest or weed control at 3 ppm ([2]; single compound 3 ppm) | pest or weed control at 10 ppm ([2]; single compound 10 ppm) | melting point | also measured
1 | CC(C)O/N=C(/CNC(=O)c1ccccc1C(F)(F)F)c1ncc(Cl)cc1Cl [Compound No. 4] | 75 | 70 | 60 | 40 | 65 | – | – | – | –
2 | COc1c(Cl)cnc(C(CNC(=O)c2ccccc2C(F)(F)F)=NOC(C)C)c1Cl [Compound No. 9] | – | – | – | 60 | 75 | – | – | – | Preventive value ([1]; Test Example 1, 1 ppm spray, cucumber cotyledon, 3 days at 20° C.): 75; Preventive value ([1]; Test Example 3, 1 ppm spray): 70; Preventive value ([1]; Test Example 4, 1 ppm spray): 72
3 | CC#Cc1cnc(/C(CNC(=O)c2cn(C)nc2C(F)F)=N\OC(C)C)c(Cl)c1 [Compound No. 20, (Z)—N-[2-[3-chloro-5-(1-propynyl)pyridin-2-yl]-2-(isopropoxyimino)ethyl]-3-difluoromethyl-1-methyl-1H-pyrazole-4-carboxamide] | – | – | – | – | – | 80% | 85% | 102 to 103 °C | pest or weed control at 3 ppm ([1]; Test Example 1, 3 ppm spray): 63%; pest or weed control at 3 ppm ([1]; Test Example 3, 3 ppm spray): 65%; pest or weed control at 3 ppm ([1]; Test Example 4, 3 ppm spray): 65%
4 | CC(C)O/N=C(/CNC(=O)c1cn(C)nc1C(F)F)c1ncc(C#CC2CC2)cc1Cl [Compound No. 25, (Z)—N-[2-[3-chloro-5-(cyclopropylethynyl)pyridin-2-yl]-2-(isopropoxyimino)ethyl]-3-difluoromethyl-1-methyl-1H-pyrazole-4-carboxamide] | – | – | – | – | – | 75% | 85% | 105 to 107 °C | pest or weed control at 1 ppm ([1]; Test Example 2, 1 ppm spray): 63%; pest or weed control at 1 ppm ([1]; Test Example 3, 1 ppm spray): 75%; pest or weed control at 1 ppm ([1]; Test Example 4, 1 ppm spray): 75%
5 | CC(C)ON=C(CNC(=O)c1ccccc1C(F)(F)F)c1ncc(C(F)(F)F)cc1Cl [compound 14] | 75 | 75 | 65 | 75 | 80 | – | – | – | –
6 | CON=C(CNC(=O)c1cn(C)nc1C(F)F)c1ncc(C#CC(C)(C)C)cc1Cl [compound 28] | 75 | 77 | 75 | 60 | 85 | – | – | – | –
